Values after ≈ are worked out from the molar mass of the structure shown. Like-named read-outs stand apart in the source and are kept apart here.
Columns and labels:
[1] = test system: all 41 multidrug-resistant Ab strains (#273-313) from the CDC and FDA AR Bank; experiment: MIC determination, panel statements; assay type: cell-based; settings: Acinetobacter baumannii; Table 2 note; almost all of the 41 strains; read-out: MIC values against almost all strains
Method: All bacterial strains listed above were stored at −80° C. All strains were streaked on Mueller-Hinton (MH) plates and allowed to grow at 37° C. overnight. Enough colonies were scraped from the plate and suspended in MH broth with vortexing to reach an attenuance at 600 nm (OD600) of ˜0.5. The resulting culture was diluted 1:1000 and added to the prepared serially doubly diluted compound solutions in 96-well plates. For M. smegmatis, a 1:100 dilution of the bacteria was done in MH. All MIC values were determined using 96-well plates with low evaporation seals at least in duplicate. For each row, one well was reserved for sterile control (which consisted of 200 μL of MH medium) and another well was reserved for growth control (which consisted of 100 μL of MH medium seeded with 100 μL of bacterial culture).
Then all 46 compounds were tested against a broad panel of all 41 Ab strains from the CDC and FDA Antibiotic Resistance (AR) Isolate Bank (Table 2; data shown for 2 representative compounds), which were all highly multidrug-resistant strains, including those resistant to colistin. […] The activity of the monohydrazides was not dependent on the extent (number of resistance mutations) or severity (antibiotic MIC) of resistance. All conclusions made from Table 1 remained valid for all compounds against these 41 additional Ab strains. […]

Ab ATCC 19606 (strain I) = experiment: MIC determination (double dilution, Mueller-Hinton broth); assay type: cell-based, Acinetobacter baumannii; settings: Acinetobacter baumannii, ATCC19606; Table 1; control strain; read-out: MIC Ab ATCC 19606
[2] = test system: Ab ATCC BAA1605 (strain J, multidrug-resistant); experiment: MIC determination; assay type: cell-based; settings: Acinetobacter baumannii
Outline: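 Broth double-dilution MIC in Mueller-Hinton broth, 96-well plates, at least in duplicate. Inoculum: colonies grown overnight at 37 °C on MH plates, suspended to OD600 ~0.5 and diluted 1:1000 into serially doubly diluted compound.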

E. cloacae ATCC 13047 = experiment: MIC determination; assay type: cell-based; settings: Enterobacter cloacae, ATCC13047; Table 4; read-out: MIC E. cloacae ATCC 13047
[3] = test system: S. epidermidis ATCC 12228; experiment: MIC determination; assay type: cell-based; settings: Staphylococcus epidermidis, ATCC12228; Table 4; read-out: MIC S. epidermidis ATCC 12228
E. coli ATCC BAA 2469 = experiment: MIC determination; assay type: cell-based; settings: Escherichia coli, BAA2469; Table 3
K. pneumoniae ATCC 27736 = experiment: MIC determination; assay type: cell-based; settings: Klebsiella pneumoniae, ATCC27736; Table 3; read-out: MIC K. pneumoniae ATCC 27736
B. anthracis Sterne F32 = experiment: microbe, parasite or virus in culture; assay type: cell-based; settings: Bacillus anthracis, STERNEF32, read-out: MIC B. anthracis Sterne F32
S. enterica ATCC 14028 = experiment: MIC determination; assay type: cell-based; settings: Salmonella enterica, ATCC14028; Table 4; read-out: MIC S. enterica ATCC 14028
S. aureus ATCC 25923 = experiment: MIC determination; assay type: cell-based; settings: Staphylococcus aureus, ATCC25923; Table 4; read-out: MIC S. Aureus ATCC 25923
Y. pestis CO92 = experiment: microbe, parasite or virus in culture; assay type: cell-based; settings: Yersinia pestis, CO92, read-out: MIC Y. pestis CO92
[4] = test system: K. pneumoniae ATCC BAA 1705; experiment: MIC determination; assay type: cell-based; settings: Klebsiella pneumoniae, BAA1705; Table 3
M. smegmatis = experiment: MIC determination; assay type: cell-based, Mycobacterium smegmatis; settings: Mycolicibacterium smegmatis; Table 4
P. aeruginosa ATCC 27853 = experiment: MIC determination; assay type: cell-based; settings: Pseudomonas aeruginosa, ATCC27853; Table 3; read-out: MIC P. aeruginosa ATCC 27853

Compound: NC[C@H]1O[C@H](O[C@H]2[C@H](O)[C@@H](O[C@H]3O[C@H](CO)[C@@H](O)[C@H](N)[C@H]3O)[C@H](N)C[C@@H]2N)[C@H](O)[C@@H](O)[C@@H]1O [KAN, kanamycin, reference compound]
- MIC [1]: > 10 µg/mL
- MIC (Ab ATCC 19606 (strain I)): 5 µg/mL (≈ 10.3 µM)
- MIC ([2]; Table 1, multidrug-resistant strain, read-out: MIC Ab ATCC BAA 1605): 10 µg/mL (≈ 20.6 µM)
- MIC ([2]; Table 3, positive control strain, read-out: MIC A. Baumannii ATCC BAA 1605): 32 µg/mL (≈ 66 µM)
- MIC (E. cloacae ATCC 13047): 1.25 µg/mL (≈ 2.58 µM)
- MIC [3]: 0.63 µg/mL (≈ 1.3 µM)
- MIC (E. coli ATCC BAA 2469): > 128 µg/mL
- MIC (K. pneumoniae ATCC 27736): 4 µg/mL (≈ 8.26 µM)
- MIC (B. anthracis Sterne F32): > 160 µg/mL
- MIC (S. enterica ATCC 14028): 2.5 µg/mL (≈ 5.16 µM)
- MIC (S. aureus ATCC 25923): 0.63 µg/mL (≈ 1.3 µM)
- MIC (Y. pestis CO92): 2.5 µg/mL (≈ 5.16 µM)
- MIC [4]: > 128 µg/mL
- MIC (M. smegmatis): ≤ 0.03 µg/mL
- MIC (P. aeruginosa ATCC 27853): > 128 µg/mL

From patent US20260041683A1, “Compounds with Anti-Acinetobacter Baumannii Activity” (University of Kentucky Research Foundation, priority 2022, published 2026)
